Target: T1, cyclic GMP specific phosphodiesterase (PDE 5) (Homo sapiens, UniProt O76074)
T1 construct: isolated from human platelet lysates by ion exchange chromatography using a Mono-Q column; from tissue; host or cells: human platelets (lysate, Mono-Q ion exchange fraction)
Test: PDE 5 inhibitory activity, enzyme isolated from human platelet lysates
Type: biochemical
Conditions: PDE 5 from human platelet lysates; 0.25 mM [3H]-cyclic GMP as substrate; read-out: IC50 PDE5
Method: The cyclic GMP specific phosphodiesterase (PDE 5) was isolated from human platelet lysates by ion exchange chromatography using a Mono-Q column. The enzyme activity was determined using 0.25 mM [3H]-cyclic GMP as substrate. The purification of the enzyme and the assessment of the PDE 5 inhibitory activity of our compounds were performed essentially as described by R. W. Gristwood et al., Br. J. Pharmacol. 1992, 105:985-991.

Structure (SMILES) | IC50
CCCOc1ccc(S(=O)(=O)N2CCN(C)CC2)cc1-c1cc2c([nH]1)c(=O)n(C)c(=O)n2CCC [Example 12, 3-Methyl-6-[5-(4-methylpiperazine-1-sulphonyl)-2-propoxyphenyl]-1-propyl-1,5-dihydropyrrolo[3,2-d]pyrimidine-2,4-dione] | 14 nM
CCCOc1ccc(S(=O)(=O)N2CCN(CC)CC2)cc1-c1cc2c([nH]1)c(=O)n(C)c(=O)n2CCC [Example 13, 6-[5-(4-Ethylpiperazine-1-sulphonyl)-2-propoxyphenyl]-3-methyl-1-propyl-1,5-dihydropyrrolo[3,2-d]pyrimidine-2,4-dione] | 8 nM
CCCOc1ccc(S(=O)(=O)N2CCN(CC)CC2)cc1-c1[nH]c2c(=O)n(C)c(=O)n(CCC)c2c1Cl [Example 34, 7-Chloro-6-[5-(4-ethylpiperazine-1-sulfonyl)-2-propoxyphenyl]-3-methyl-1-propyl-1,5-dihydropyrrolo[3,2-d]pyrimidine-2,4-dione] | 3.6 nM
CCCOc1ccc(S(=O)(=O)N2CCN(C)CC2)cc1-c1[nH]c2c(=O)n(C)c(=O)n(CCC)c2c1Cl [Example 33, 7-Chloro-3-methyl-6-[5-(4-methylpiperazine-1-sulfonyl)-2-propoxyphenyl]-1-propyl-1,5-dihydropyrrolo[3,2-d]pyrimidine-2,4-dione] | 4.2 nM
CCCn1c(=O)n(C)c(=O)c2[nH]c(-c3cc(S(=O)(=O)N4CCN(C)CC4)ccc3OCC)c(Cl)c21 [Example 27, 7-Chloro-6-[2-ethoxy-5-(4-methylpiperazine-1-sulfonyl)phenyl]-3-methyl-1-propyl-1,5-dihydropyrrolo[3,2-d]pyrimidine-2,4-dione] | 3.4 nM

The remaining lines, values ahead:

IC50 | Structure (SMILES)
4 nM | CCCOc1ccc(S(=O)(=O)N2CCN(CCCO)CC2)cc1-c1[nH]c2c(=O)n(C)c(=O)n(CCC)c2c1Br [Example 57, 7-Bromo-6-{5-[4-(3-hydroxypropyl)piperazine-1-sulfonyl]-2-propoxyphenyl}-3-methyl-1-propyl-1,5-dihydropyrrolo[3,2-d]pyrimidine-2,4-dione]
9.2 nM | CCCn1c(=O)n(C)c(=O)c2[nH]c(-c3cc(S(=O)(=O)N4CCN(CCCO)CC4)ccc3OCC)c(Br)c21 [Example 47, 7-Bromo-6-{2-ethoxy-5-[4-(3-hydroxypropyl)piperazine-1-sulfonyl]phenyl}-3-methyl-1-propyl-1,5-dihydropyrrolo[3,2-d]pyrimidine-2,4-dione]
6.6 nM | CCCOc1ccc(S(=O)(=O)N2CCN(CCO)CC2)cc1-c1[nH]c2c(=O)n(C)c(=O)n(CCC)c2c1Br [Example 55, 7-Bromo-6-{5-[4-(2-hydroxyethyl)piperazine-1-sulfonyl]-2-propoxyphenyl}-3-methyl-1-propyl-1,5-dihydropyrrolo[3,2-d]pyrimidine-2,4-dione]
3.4 nM | CCCOc1ccc(S(=O)(=O)N2CCN(CCO)CC2)cc1-c1[nH]c2c(=O)n(C)c(=O)n(CCC)c2c1Cl [Example 35, 7-Chloro-6-{5-[4-(2-hydroxyethyl)piperazine-1-sulfonyl]-2-propoxyphenyl}-3-methyl-1-propyl-1,5-dihydropyrrolo[3,2-d]pyrimidine-2,4-dione]
4.5 nM | CCCOc1ccc(S(=O)(=O)N2CCN(C)CC2)cc1-c1[nH]c2c(=O)n(C)c(=O)n(CCC)c2c1Br [Example 50, 7-Bromo-3-methyl-6-[5-(4-methylpiperazine-1-sulfonyl)-2-propoxyphenyl]-1-propyl-1,5-dihydropyrrolo[3,2-d]pyrimidine-2,4-dione]

Reference: patent publication US6943253B2, “6-phenylpyrrolopyrimidinedione derivatives” (Almirall Prodesfarma S.A., priority 2000, dated 2005)
